Assay results published in PubChem BioAssay AID256 (DTP/NCI, 2004).
“And” between values parts separate entries of the source, which are not always exact repeats. Equal values may be shown once. Inconclusive results and toxic doses are left out.

Test system: CD2F1 mice, L1210 leukemia ip, survival T/C
Experiment: NCI In Vivo Anticancer Drug Screen. Data for tumor model L1210 Leukemia (intraperitoneal) in CD2F1 (CDF1) mice
Conditions: higher = longer survival
Method in brief: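 Activity against a transplanted murine tumor was judged by comparing the compound group with a vehicle group. The outcome in the treated animals was divided by that in the controls.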

[1] = endpoint: mean survival time, dose: 50.0 mg/kg/injection, schedule: Q04DX002 (ip), vehicle: saline with Tween-80
[2] = endpoint: mean survival time, dose: 100.0 mg/kg/injection, schedule: Q04DX002 (ip), vehicle: saline with Tween-80
[3] = endpoint: mean survival time, dose: 200.0 mg/kg/injection, schedule: Q04DX002 (ip), vehicle: saline with Tween-80
[4] = endpoint: mean survival time, dose: 100.0 mg/kg/injection, schedule: Q01DX001 (ip), vehicle: saline with Tween-80
[5] = endpoint: mean survival time, dose: 100.0 mg/kg/injection, schedule: Q01DX009 (ip), vehicle: saline with Tween-80
[6] = endpoint: mean survival time, dose: 200.0 mg/kg/injection, schedule: Q01DX001 (ip), vehicle: saline with Tween-80
[7] = endpoint: mean survival time, dose: 400.0 mg/kg/injection, schedule: Q01DX001 (ip), vehicle: saline with Tween-80
[8] = endpoint: mean survival time, dose: 100.0 mg/kg/injection, schedule: Q04DX003 (ip), vehicle: saline with Tween-80
[9] = endpoint: mean survival time, dose: 200.0 mg/kg/injection, schedule: Q04DX003 (ip), vehicle: saline with Tween-80
[10] = endpoint: mean survival time, dose: 400.0 mg/kg/injection, schedule: Q04DX003 (ip), vehicle: saline with Tween-80

## CCOC(=O)C1CC=CCC1C(=O)OCC (centres undefined)
endpoint: mean survival time, dose: 35.0 mg/kg/injection, schedule: Q04DX003 (ip), vehicle: other
  T/C: 111 % of control
endpoint: mean survival time, dose: 65.0 mg/kg/injection, schedule: Q04DX003 (ip), vehicle: other
  T/C: 94 % of control
endpoint: mean survival time, dose: 100.0 mg/kg/injection, schedule: Q04DX003 (ip), vehicle: other
  T/C: 103 % of control
endpoint: mean survival time, dose: 150.0 mg/kg/injection, schedule: Q04DX003 (ip), vehicle: other
  T/C: 100 % of control

## O=C1CCCO1
endpoint: mean survival time, dose: 12.0 mg/kg/injection, schedule: Q01DX009 (ip), vehicle: saline
  T/C: 99 % of control
endpoint: mean survival time, dose: 50.0 mg/kg/injection, schedule: Q01DX009 (ip), vehicle: saline
  T/C: 91 % of control
endpoint: mean survival time, dose: 100.0 mg/kg/injection, schedule: Q01DX009 (ip), vehicle: saline
  T/C: 92 % of control
endpoint: mean survival time, dose: 100.0 mg/kg/injection, schedule: Q04DX002 (ip), vehicle: saline
  T/C: 107 % of control
endpoint: mean survival time, dose: 200.0 mg/kg/injection, schedule: Q04DX002 (ip), vehicle: saline
  T/C: 98 % of control
endpoint: mean survival time, dose: 400.0 mg/kg/injection, schedule: Q04DX002 (ip), vehicle: saline
  T/C: 102 % of control

## c1ccc(-c2oc(-c3ccccc3)c3c(-c4ccccc4)cccc23)cc1
[1]
  T/C: 90 % of control
[2]
  T/C: 87 % of control
[3]
  T/C: 87 % of control

## CC(=O)NC(CO)C(O)c1ccc(N)cc1 (centres undefined)
[4]
  T/C: 97 % of control
[5]
  T/C: 102 % of control
[6]
  T/C: 101 % of control
endpoint: mean survival time, dose: 200.0 mg/kg/injection, schedule: Q01DX009 (ip), vehicle: saline with Tween-80
  T/C: 96 % of control
[7]
  T/C: 104 % of control
endpoint: mean survival time, dose: 400.0 mg/kg/injection, schedule: Q01DX009 (ip), vehicle: saline with Tween-80
  T/C: 96 % of control

## Cc1ccc(S(=O)(=O)OCC(O)C(O)C(O)C(C)O)cc1 (centres undefined)
[4]
  T/C: 98 % of control
[6]
  T/C: 98 % of control
[7]
  T/C: 102 % of control

## O=[N+]([O-])c1cccc(S(=O)(=O)N2CCCCC2)c1
[1]
  T/C: 95 % of control
[2]
  T/C: 87 % of control
[3]
  T/C: 95 % of control
endpoint: mean survival time, dose: 400.0 mg/kg/injection, schedule: Q04DX002 (ip), vehicle: saline with Tween-80
  T/C: 91 % of control

## c1ccc(CCc2nc(-c3ccccc3)cc(-c3ccccc3)n2)cc1
[4]
  T/C: 89 % of control
[6]
  T/C: 92 % of control
[7]
  T/C: 87 % of control

## N#CC(=N)N1CCN(C(=N)C#N)CC1
endpoint: mean survival time, dose: 25.0 mg/kg/injection, schedule: Q04DX002 (ip), vehicle: saline with Tween-80
  T/C: 93 % of control
[1]
  T/C: 86 % of control
endpoint: mean survival time, dose: 100.0 mg/kg/injection, schedule: Q01DX001 (ip), vehicle: saline
  T/C: 97 % of control

## C#CC1(OC(=O)Nc2ccc3c(c2)OCO3)CCCCC1
[4]
  T/C: 92 % of control
[6]
  T/C: 86 % of control
[7]
  T/C: 95 % of control

## O=C1Nc2ccc([N+](=O)[O-])c3c(C(=O)O)ccc1c23
[8]
  T/C: 98 % of control
[9]
  T/C: 104 % of control
[10]
  T/C: 101 % of control

## CCOC(=O)Nc1cc(NC(C)/C(=N/O)c2ccccc2)c([N+](=O)[O-])c(N)n1 (centres undefined)
endpoint: median survival time, dose: 25.0 mg/kg/injection, schedule: Q01DX005 (ip), vehicle: Klucel (hydroxypropylcellulose) (HPC)
  T/C: 119 % of control and 98 % of control
endpoint: median survival time, dose: 30.0 mg/kg/injection, schedule: Q01DX005 (ip), vehicle: Klucel (hydroxypropylcellulose) (HPC)
  T/C: 98 % of control
endpoint: median survival time, dose: 40.0 mg/kg/injection, schedule: Q01DX005 (ip), vehicle: Klucel (hydroxypropylcellulose) (HPC)
  T/C: 119 % of control
endpoint: median survival time, dose: 60.0 mg/kg/injection, schedule: Q01DX005 (ip), vehicle: Klucel (hydroxypropylcellulose) (HPC)
  T/C: 110 % of control
endpoint: median survival time, dose: 120.0 mg/kg/injection, schedule: Q01DX005 (ip), vehicle: Klucel (hydroxypropylcellulose) (HPC)
  T/C: 122 % of control
endpoint: median survival time, dose: 200.0 mg/kg/injection, schedule: Q01DX005 (ip), vehicle: Klucel (hydroxypropylcellulose) (HPC)
  T/C: 188 % of control

## O=c1cn[nH]c2ccc(Br)cc12
endpoint: mean survival time, dose: 100.0 mg/kg/injection, schedule: Q01DX001 (ip), vehicle: other
  T/C: 97 % of control
endpoint: mean survival time, dose: 200.0 mg/kg/injection, schedule: Q01DX001 (ip), vehicle: other
  T/C: 102 % of control
endpoint: mean survival time, dose: 400.0 mg/kg/injection, schedule: Q01DX001 (ip), vehicle: other
  T/C: 91 % of control

## COC(=O)C(Cl)c1ccc2c(c1)OCO2 (centres undefined)
endpoint: mean survival time, dose: 50.0 mg/kg/injection, schedule: Q01DX009 (ip), vehicle: saline with Tween-80
  T/C: 96 % of control
[5]
  T/C: 96 % of control
[8]
  T/C: 96 % of control
[9]
  T/C: 93 % of control

## Cc1cc2nc(C(=C(c3nc4cc(C)c(C)cc4[nH]3)c3nc4cc(C)c(C)cc4[nH]3)c3nc4cc(C)c(C)cc4[nH]3)[nH]c2cc1C
[8]
  T/C: 97 % of control
[9]
  T/C: 94 % of control
[10]
  T/C: 89 % of control

## CC(=O)Oc1c(C)ncc(C=O)c1C
endpoint: mean survival time, dose: 75.0 mg/kg/injection, schedule: Q01DX001 (ip), vehicle: other
  T/C: 101 % of control
endpoint: mean survival time, dose: 150.0 mg/kg/injection, schedule: Q01DX001 (ip), vehicle: other
  T/C: 100 % of control

## c1ccc([I+]c2ccccc2)cc1
endpoint: mean survival time, dose: 0.65 mg/kg/injection, schedule: Q01DX009 (ip), vehicle: saline with Tween-80
  T/C: 98 % of control
endpoint: mean survival time, dose: 1.3 mg/kg/injection, schedule: Q01DX009 (ip), vehicle: saline with Tween-80
  T/C: 98 % of control
endpoint: mean survival time, dose: 2.5 mg/kg/injection, schedule: Q01DX009 (ip), vehicle: saline sonified
  T/C: 103 % of control
endpoint: mean survival time, dose: 2.5 mg/kg/injection, schedule: Q01DX009 (ip), vehicle: saline with Tween-80
  T/C: 98 % of control
endpoint: mean survival time, dose: 2.5 mg/kg/injection, schedule: Q04DX003 (ip), vehicle: saline with Tween-80
  T/C: 95 % of control
endpoint: mean survival time, dose: 5.0 mg/kg/injection, schedule: Q01DX009 (ip), vehicle: saline sonified
  T/C: 94 % of control
endpoint: mean survival time, dose: 5.0 mg/kg/injection, schedule: Q04DX003 (ip), vehicle: saline with Tween-80
  T/C: 104 % of control
endpoint: mean survival time, dose: 5.0 mg/kg/injection, schedule: Q04DX003 (ip), vehicle: saline
  T/C: 98 % of control
endpoint: mean survival time, dose: 10.0 mg/kg/injection, schedule: Q04DX003 (ip), vehicle: saline with Tween-80
  T/C: 103 % of control
endpoint: mean survival time, dose: 10.0 mg/kg/injection, schedule: Q04DX003 (ip), vehicle: saline
  T/C: 97 % of control
endpoint: mean survival time, dose: 20.0 mg/kg/injection, schedule: Q04DX003 (ip), vehicle: saline
  T/C: 115 % of control

## COc1nc(NC2OCC(O)C(O)C2O)cc(=O)n1C (centres undefined)
endpoint: median survival time, dose: 12.5 mg/kg/injection, schedule: Q01DX005 (ip), vehicle: saline
  T/C: 102 % of control
endpoint: median survival time, dose: 25.0 mg/kg/injection, schedule: Q01DX005 (ip), vehicle: saline
  T/C: 101 % of control
endpoint: median survival time, dose: 50.0 mg/kg/injection, schedule: Q01DX005 (ip), vehicle: saline
  T/C: 100 % of control
endpoint: median survival time, dose: 100.0 mg/kg/injection, schedule: Q01DX005 (ip), vehicle: saline
  T/C: 105 % of control
endpoint: median survival time, dose: 200.0 mg/kg/injection, schedule: Q01DX005 (ip), vehicle: saline
  T/C: 98 % of control

## C/C=C1\CN2CCC34c5ccccc5N5C(=O)CCC(C1CC23)C54 (centres undefined)
endpoint: mean survival time, dose: 5.0 mg/kg/injection, schedule: Q01DX001 (ip), vehicle: saline
  T/C: 98 % of control
endpoint: mean survival time, dose: 10.0 mg/kg/injection, schedule: Q01DX001 (ip), vehicle: saline
  T/C: 98 % of control
endpoint: mean survival time, dose: 20.0 mg/kg/injection, schedule: Q01DX001 (ip), vehicle: saline
  T/C: 98 % of control
endpoint: mean survival time, dose: 40.0 mg/kg/injection, schedule: Q01DX001 (ip), vehicle: saline
  T/C: 100 % of control

## COC1OC2C(CO)OC(n3ncc4c3ncn3cnnc43)C2O1 (centres undefined)
endpoint: mean survival time, dose: 12.5 mg/kg/injection, schedule: Q01DX005 (ip), vehicle: distilled water + Tween-80
  T/C: 96 % of control
endpoint: mean survival time, dose: 25.0 mg/kg/injection, schedule: Q01DX005 (ip), vehicle: distilled water + Tween-80
  T/C: 96 % of control
endpoint: mean survival time, dose: 50.0 mg/kg/injection, schedule: Q01DX005 (ip), vehicle: distilled water + Tween-80
  T/C: 92 % of control
endpoint: mean survival time, dose: 100.0 mg/kg/injection, schedule: Q01DX005 (ip), vehicle: distilled water + Tween-80
  T/C: 96 % of control
endpoint: mean survival time, dose: 200.0 mg/kg/injection, schedule: Q01DX005 (ip), vehicle: distilled water + Tween-80
  T/C: 96 % of control

## CCCCOC(=O)CNC(=O)c1ccc(C)c(OCc2ccccc2)c1[N+](=O)[O-]
endpoint: mean survival time, dose: 75.0 mg/kg/injection, schedule: Q01DX001 (ip), vehicle: steriod suspending solution
  T/C: 100 % of control
endpoint: mean survival time, dose: 150.0 mg/kg/injection, schedule: Q01DX001 (ip), vehicle: steriod suspending solution
  T/C: 100 % of control
endpoint: mean survival time, dose: 300.0 mg/kg/injection, schedule: Q01DX001 (ip), vehicle: steriod suspending solution
  T/C: 100 % of control
